Experimental data as given in patent US4894388A, “Glycosidase inhibitors and use thereof” (priority 1988, dated 1990).

Tests used:
[1] = system: α-D-mannosidase (multiple forms); assay: Inhibition of multiple forms of α-D-mannosidase; format: biochemical; conditions: human liver
Procedure: (§1) Post mortem human liver, which had been stored at -20° C. until required was homogenized in deionized water (50%, w/v) in a Potter-Elvehjem homogenizer and then centrifuged at 37,000 g for 30 min in an MSE 18 centrifuge. The resultant supernatant was used as the source of enzymic activities.
(§2) The glycosidase activities in an extract of normal human liver were assayed by using the appropriate fluorigenic 4-methylumbelliferyl glycoside substrate (Koch-Light, Haverhill, Suffolk, U.K.) with a concentration of 0.5 mM at the optimal pH of each enzyme [Burditt et al., Clin. Chim. Acta 140, 201-209 (1980)]. Human liver acidic (lysomal) and neutral (cystosolic) α-D-mannosidases were assayed similarly at their pH-optima, of 4.0 and 6.5, respectively, after separation by affinity chromatography on concanavalin A-Sepharose® (Pharmacia Ltd, Milton Keynes, Bucks, U.K.) [Phillips et al., Biochem. J. 153, 579-587 (1976)]. The residual intermediate (Golgi) α-mannosidase II activity in extracts of fibroblasts from a patient with the lysosomal storage disease, mannosidosis, was assayed at pH 5.75 using the synthetic substrate (Burditt et al, Ibid.). The specificity of the inhibitors was determined by assaying the glycosidases in the presence and absence of a 1 mM solution of each compound. The nature of the inhibition and the value of Ki were determined using the Dixon graphical procedure.

β-D-glucosidase = assay: Inhibition of β-D-glucosidase; format: biochemical, human; conditions: relative to α-D-mannosidase
Procedure: as §1, §2

Golgi α-D-mannosidase II = molecular target: T1, Golgi α-D-mannosidase II (Homo sapiens, UniProt Q16706); assay: Inhibition of Golgi α-D-mannosidase II in extracts of fibroblasts from a mannosidosis patient; format: biochemical; conditions: for inhibition at 1000 µM: 1 mM inhibitor, pH 5.75, mean of 2-4 determinations
T1 construct: activity in extracts of fibroblasts from a patient; endogenous in cells; host or cells: fibroblasts from a mannosidosis patient (extract)
T1 sequence (Q16706 1-1144): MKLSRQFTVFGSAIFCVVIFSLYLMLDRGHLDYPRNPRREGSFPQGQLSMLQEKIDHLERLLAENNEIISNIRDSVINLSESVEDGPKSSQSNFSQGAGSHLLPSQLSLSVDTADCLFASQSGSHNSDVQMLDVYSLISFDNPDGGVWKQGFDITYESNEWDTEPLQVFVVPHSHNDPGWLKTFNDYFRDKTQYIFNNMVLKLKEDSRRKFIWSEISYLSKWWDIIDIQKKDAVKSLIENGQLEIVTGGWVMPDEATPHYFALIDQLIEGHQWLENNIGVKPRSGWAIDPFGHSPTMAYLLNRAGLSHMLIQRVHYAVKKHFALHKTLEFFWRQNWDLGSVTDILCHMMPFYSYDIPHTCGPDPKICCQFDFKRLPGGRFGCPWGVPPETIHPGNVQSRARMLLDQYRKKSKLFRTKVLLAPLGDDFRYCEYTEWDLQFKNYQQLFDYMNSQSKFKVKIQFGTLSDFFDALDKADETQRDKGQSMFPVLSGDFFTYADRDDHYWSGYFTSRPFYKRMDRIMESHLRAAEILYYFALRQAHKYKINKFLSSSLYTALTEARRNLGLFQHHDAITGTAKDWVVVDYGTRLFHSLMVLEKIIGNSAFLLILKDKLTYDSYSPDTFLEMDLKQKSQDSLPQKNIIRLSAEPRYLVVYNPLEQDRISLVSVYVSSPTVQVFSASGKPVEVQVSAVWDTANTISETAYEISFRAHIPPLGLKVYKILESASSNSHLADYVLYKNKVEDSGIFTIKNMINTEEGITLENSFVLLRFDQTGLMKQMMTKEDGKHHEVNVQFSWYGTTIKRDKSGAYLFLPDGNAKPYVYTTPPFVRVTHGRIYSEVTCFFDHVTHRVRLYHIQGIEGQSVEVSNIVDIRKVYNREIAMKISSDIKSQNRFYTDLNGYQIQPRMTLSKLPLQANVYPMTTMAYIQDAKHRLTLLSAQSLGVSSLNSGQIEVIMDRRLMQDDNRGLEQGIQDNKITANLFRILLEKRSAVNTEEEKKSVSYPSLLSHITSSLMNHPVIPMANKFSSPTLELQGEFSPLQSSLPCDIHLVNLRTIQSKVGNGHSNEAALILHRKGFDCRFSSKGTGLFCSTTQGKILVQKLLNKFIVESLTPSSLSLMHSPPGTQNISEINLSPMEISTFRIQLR
Procedure: as §2
Enzymic activities were measured in the presence and absence of 1 mM inhibitor. Inhibition (%) was calculated as the fraction of activity lost in the presence of inhibitor. The values are means of two to four independent determinations.

Structure (SMILES)	inhibition of multiple forms of α-D-mannosidase (in words) [1]	inhibition of β-D-glucosidase (in words) (β-D-glucosidase)	inhibition of α-D-mannosidase II (in words) (Golgi α-D-mannosidase II)	inhibition at 1000 µM (Golgi α-D-mannosidase II) [%]
OC[C@H](O)[C@@H]1NC[C@@H](O)[C@H]1O [DIA, 1,4-dideoxy-1,4-imino-L-allitol]	moderately strong inhibitor	to a lesser extent	potent inhibitor	95
OC[C@H](O)[C@H]1[C@H](O)[C@H](O)CN1Cc1ccccc1 [N-benzyl DIA, N-benzyl-1,4-dideoxy-1,4-imino-L-allitol]				0
CN1C[C@@H](O)[C@@H](O)[C@@H]1[C@@H](O)CO [N-methyl DIA, N-methyl-1,4-dideoxy-1,4-imino-L-allitol]				33
